Here are results for four molecules from US20240294570A1, “ENZYMATICALLY FORMING INTRANUCLEAR PEPTIDE ASSEMBLIES FOR SELECTIVELY KILLING INDUCED PLURIPOTENT STEM CELLS” (BRANDEIS UNIVERSITY, priority 2021, published 2024).

For orientation: half-life means how long it takes for the measured level to halve. High values mean slow loss, low ones fast loss.

Non-standard residues stand in square brackets, D forms with d. Residues, ends and D or L forms follow the SMILES beside them. No end group written: not given here. *: point of attachment. pY = N[C@@H](Cc1ccc(OP(=O)(O)O)cc1)C(=O)O; NBD = O=[N+]([O-])c1ccc(*)c2nonc12; βAla = NCCC(=O)O

Series [1] in a line: Enzymatic self-assembly in vitro, nanostructures by TEM. It counts as physicochemical. The conditions noted are these: for diameters of nanofibers: after dephosphorylation at 400 μM by ALP (0.5 U/mL). As to the method: TEM Sample Preparation: After placing 5 μL samples on 400 mesh copper grids coated with continuous thick carbon film (˜35 nm) which is glowed discharged, we washed the grid with ddH2O and UA (uranyl acetate). The sample loaded grid was stained with the UA. The residual UA was removed by filter paper and then dried in air. TEM images were obtained with Morgagni 268 transmission electron microscope.
After obtaining all the precursors, their behaviors for EISA were evaluated in vitro using transmission electron microscopes (TEM) to examine the nanostructures formed before and after the ALP catalyzed dephosphorylation of precursors 5, 7, and 9. […] The critical micelle concentration (CMC) of 5 is 86.1 μM. […] The CMC of 6 is 8.1 μM. Unlike the case of 5, dephosphorylation of 7 or 9 at 400 μM by ALP (0.5 U/mL) produces nanofibers with the diameters of 6±2 nm or 9±2 nm, whose CMC is 87.4 μM or 25.8 μM, respectively.
A key requirement for selectively eliminating iPSCs by EISA is that the L-peptide nanoribbons only form on and in iPSCs, which overexpress ALP, but not on and in the differentiated cells that express normal level of ALP. That is, L-peptide nanoribbons should only rapidly form at high level of ALP, but not at normal level of ALP. […] Thus, after assessing the level of ALP expression in iPSCs, it should be possible to optimizing the initial concentration of a peptide and the time of dephosphorylation, to promote EISA that selectively targets iPSCs.

Series [2] in a line: Critical micelle concentration (CMC) measurement with pyrene probe. It is filed as physicochemical. The note with it: for CMC of the nanofiber-forming product of dephosphorylation: product after dephosphorylation at 400 μM by ALP (0.5 U/mL). On the procedure: Critical Micelle Concentration ((MC) Measurement: The CMCs were determined using pyrene as the fluorescent probe. Different concentrations of compounds were prepared in pyrene-saturate solutions. The fluorescence spectra of pyrene solutions with different concentration compounds were obtained. The intensity ratio of 378 nm/393 nm (I378/I393) was determined by a Synergy H1 hybrid multi-mode microplate reader. Plot I378/I393 against the concentrations of compounds. The concentration at the turning point is the CMC.

The nature of series [3]: Degradation in HS-5 cell lysate (LC-MS).
For the next series, the system named is ALP. Kind of series: Dephosphorylation rate measurement (LC-MS). The conditions noted are these: for conversion ratio to dephosphorylated peptide / half-life at 100 μM / half-life at 200 μM: 0.5 U/mL ALP; for conversion ratio to dephosphorylated peptide: after 5 h of incubation; for half-life at 400 μM / half-life at 100 μM / half-life at 200 μM: alkaline phosphatase (ALP) in PBS; for half-life at 100 μM / half-life at 200 μM: half-life of dephosphorylation. On the procedure:
The reaction mixtures were analyzed with LC-MS.
Thus, the conversion of the phosphopentapeptides to their corresponding peptides was examined over time.

The test system of series [4] is iPSCs. Kind of series: Cell viability of iPSCs (trypan blue). The conditions noted are these: 400 μM, 2 h. It counts as cell-based, human. As to the method:
Cell Culture: Human induced pluripotent stem cell line A21 was generated from human normal dermal fibroblasts by using the StemRNA™-NM Reprogramming kit (Stemgent, Cat #00-0076). hiPSCs were routinely cultured and passaged on 6-well plates coated with 0.25 μg/cm^2 iMatrix-511 (Recombinant Laminin-511) (ReproCell) with NutriStem XF/FFTM medium (Biological Industries). HS-5 cell line and HEK293 cell line were purchased from American Type Culture Collection (ATCC, USA). HS-5 cells were cultured in Dulbecco's Modified Eagle Medium (DMEM) supplemented with 10% fetal bovine serum (FBS), 100 U/mL penicillin and 100 μg/mL streptomycin. HEK293 cells were cultured in Minimal Essential Medium (MEM) supplemented with 10% fetal bovine serum (FBS), 100 U/mL penicillin and 100 μg/mL streptomycin. All cells were maintained at 37° C. in a humidified atmosphere of 5% CO2.
Cell Viability of iPSC's: iPSCs were plated in 6-well plates and incubated for 24 to 48 hours, then media were replaced with fresh one (2 ml) supplemented with PBS (control) 5 (200 μM, 300 μM, and 400 μM), 7 (400 μM) or 9 (400 μM), and incubated for 2 hours. Media were removed and cells were rinsed with PBS once, fresh normal cultural media were added and incubated for 30 min. All cells were collected and stained with trypan blue, live cells were counted using Cellometer Auto 2000 (Nexcelom Bioscience). Data were obtained by from three independent wells (n=3).

Series [5] has as its system iPSCs. The series is described as follows: CLSM imaging of peptide assemblies in iPSCs. The conditions noted are these: 400 μM, 2 hours. It counts as cell-based, human. As to the method: Confocal Laser Scanning Microscopy (CLSM) Imaging: For live cell imaging, cells in exponential growth phase were seeded in a confocal dish (3.5 cm) at 1.0×10^5 cells per dish and then incubated in incubator for 24 h. We removed culture medium, and added fresh medium containing precursors for different time points. After removing the medium and washing the cells with live cell imaging solution (2 mL×2), the cells were used for CLSM imaging. For time-dependent live cell imaging, cells in exponential growth phase were seeded in a confocal dish (3.5 cm) at 1.0×10^5 cells per dish and then incubated in incubator for 24 h. After removing culture medium, we treated the cells with 1 mL of Hoechst 33342 (1 μg mL^−1) for 10 minutes. After being washed with culture medium (2 mL×2), the cells were incubated with fresh medium containing precursor 5 in a Tokai Hit stage top incubator (STXF-WSKMX-SET) to be used for CLSM imaging. All the CLSM images were obtained using Zeiss LSM 880 confocal microscopy at the lens of 63× with oil. The lasers used are 405 nm and 488 nm.
Because the fluorescence of NBD increases drastically from unassembled to assembled state, confocal laser scanning microscopy (CLSM) was suitable to reveal the cellular location of the peptide assemblies formed after dephosphorylation catalyzed by ALP. […] The blackness in nuclei overlaps well with the strong fluorescence. […] The results confirms that the nucleus-targeting mainly originates from the ALP catalyzed dephosphorylation.
To trace the dynamics of the formation and distribution of 5 inside iPSC cells, time-lapse CLSM was also used to image the changes of the fluorescence in the iPSCs incubated by 5 (400 μM). Using one cell as a representative case, after 6 minutes incubation fluorescent puncta appear on the membrane, likely originating from the aggregates of assemblies of 5 and those of 6 generated by the dephosphorylation catalyzed by ALP. […] After 24 minutes incubation, fluorescence starts to grow in the cytoplasm. Considering the LLLLY motif in SEQ ID NO: 2 constitutes the transmembrane domains of 18 human membrane proteins, it is possible that the affinity of 5 or 6 to membrane allows the assemblies of the mixture of 5 and 6 to interact with cellular membranes, which then facilitates nuclear localization. At about 28 minutes of incubation, fluorescence appears in the nucleus. Moreover, the nuclei shrink after the assemblies emerge in the nuclei. In addition, the nuclei also show nuclear blebbing (Stephens et al., “Chromatin Histone Modifications and Rigidity Affect Nuclear Morphology Independent of Lamins,” Mol. Biol. Cell 29(2):220-233 (2018), which is hereby incorporated by reference in its entirety). The shrinkage of nuclei and nuclear blebbing likely associate with iPSC death. To further examine the dynamics of EISA-formed peptide assemblies in iPSCs over different time, the increase of fluorescence in two cells over 2 hours was monitored; their nuclei, A and B, are shown in FIG. 10A. […] The mean fluorescent intensity in Nucleus A starts to increase at 28 minutes and levels off after 110 minutes. For Nucleus B, the mean fluorescent intensity keeps increasing from 38 minutes. The increases of the fluorescence in the nuclei and nucleoli are synchronous. […] The assemblies inside the nuclei or near nuclear membrane induce nuclear blebbing and shrinkage of nuclei, which likely contributes to the cell death.

As to “4: de-phosphorylated form of 3: NBD-bAla-Leu-Leu-Leu-Tyr (SEQ ID NO: 1) ({NBD}-[βAla]LLLY) [compound 4]”, the self-assembling ability result in series [1] (formed from 3 upon dephosphorylation by ALP) is on record as “limited self-assembling ability”.
Turning to `CC(C)C[C@H](NC(=O)CCNc1ccc([N+](=O)[O-])c2nonc12)C(=O)N[C@@H](CC(C)C)C(=O)N[C@@H](CC(C)C)C(=O)N[C@@H](CC(C)C)C(=O)N[C@@H](Cc1ccc(O)cc1)C(=O)O` [compound 6, NBD-βA-LLLLY] ({NBD-βAla}-LLLLY-OH), the “critical micelle concentration (CMC)” value in series [2] came to 8.1 µM. Moreover, the “6 remaining in HS-5 lysate” value in series [3] (from 200 μM of 5, after 2 h of incubation) was “about 20%”; in series [3] (from 200 μM of 5, after 4 hours incubation), 6.01%.
In the case of `CC(C)C[C@H](NC(=O)[C@H](CC(C)C)NC(=O)[C@H](Cc1ccc(OP(=O)(O)O)cc1)NC(=O)[C@H](CC(C)C)NC(=O)[C@H](CC(C)C)NC(=O)CCNc1ccc([N+](=O)[O-])c2nonc12)C(=O)O` [compound 7, NBD-βA-LLpYLL] ({NBD-βAla}-LL[pY]LL-OH), in series [2], the “critical micelle concentration (CMC)” value is reported as 159.9 UM and the “CMC of the nanofiber-forming product of dephosphorylation” value was determined as 87.4 µM. The diameters of nanofibers in series [1] stood at 6±2 nm. In the series on ALP, the “conversion ratio to dephosphorylated peptide” value is reported as 61.5%, the half-life at 400 μM stood at 2.09 h, the half-life at 100 μM is 2.12 h and the half-life at 200 μM stood at 1.87 h. Besides, in the series on iPSCs [4], the “cytotoxicity against the iPSCs” value is recorded as “hardly exhibit cytotoxicity”. In addition, the “NBD fluorescence in iPSCs (location of peptide assemblies)” value in the series on iPSCs [5] is “no fluorescence inside the cells”.
Turning to `CC(C)C[C@@H](NC(=O)CCNc1ccc([N+](=O)[O-])c2nonc12)C(=O)N[C@H](CC(C)C)C(=O)N[C@H](CC(C)C)C(=O)N[C@H](CC(C)C)C(=O)N[C@@H](Cc1ccc(OP(=O)(O)O)cc1)C(=O)O` [compound 9, NBD-βA-llllpY] ({NBD-βAla}-[dL][dL][dL][dL][pY]-OH), in series [2], the “critical micelle concentration (CMC)” value was 146.8 µM and the “CMC of the nanofiber-forming product of dephosphorylation” value came out at 25.8 µM. Besides, the diameters of nanofibers in series [1] is reported as 9±2 nm. Also, in the series with ALP, the “conversion ratio to dephosphorylated peptide” value stood at 93.3%, the half-life at 400 μM turned out to be 0.45 h, the half-life at 100 μM was found to be 0.41 h and the half-life at 200 μM came to 0.36 h. Further, in the series on iPSCs [4], the “cytotoxicity against the iPSCs” value is recorded as “hardly exhibit cytotoxicity”. The “NBD fluorescence in iPSCs (location of peptide assemblies)” value in the series with iPSCs [5] is reported as “most of the cells exhibit no fluorescence inside the cells”.
